Test results from ChEMBL document CHEMBL4425114, “Development of Novel Alkoxyisoxazoles as Sigma-1 Receptor Antagonists with Antinociceptive Efficacy” (J Med Chem, 2016).
The source made the active and inactive calls. The calls are words filed in the database; no cut-off is given here.

Legend:
[1] = biological target: Sigma non-opioid intracellular receptor 1 (Rattus norvegicus, UniProt Q9R0C9); assay: Displacement of [3H]-pentazocine from rat brain sigma1 receptor by PDSP assay
[2] = biological target: T1, Sigma intracellular receptor 2 (Rattus norvegicus, UniProt Q5U3Y7); assay: Displacement of [3H]DTG from rat brain sigma2 receptor by PDSP assay
T1 sequence (Q5U3Y7 whole entry): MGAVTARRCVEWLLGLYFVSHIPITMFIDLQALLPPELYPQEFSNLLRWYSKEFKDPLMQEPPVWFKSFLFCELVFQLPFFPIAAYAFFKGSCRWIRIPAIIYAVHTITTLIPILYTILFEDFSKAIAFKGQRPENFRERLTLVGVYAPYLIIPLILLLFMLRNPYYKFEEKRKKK

[3] = biological target: Sigma non-opioid intracellular receptor 1 (Rattus norvegicus) (UniProt Q9R0C9); assay: Displacement of [3H]-pentazocine from rat brain sigma1 receptor at 10 uM by PDSP assay
[4] = biological target: T2, Sigma intracellular receptor 2 (Rattus norvegicus) (UniProt Q5U3Y7); assay: Displacement of [3H]DTG from rat brain sigma2 receptor at 10 uM by PDSP assay
T2 sequence (whole entry): T1 sequence (Q5U3Y7 whole entry)

[5] = biological target: Sodium-dependent noradrenaline transporter (Homo sapiens, UniProt P23975); assay: Displacement of [3H]nisoxetine from human NET expressed in HEK293 cells measured after 30 mins; assay type: cell-based
[6] = biological target: T3, Sodium-dependent serotonin transporter (Homo sapiens, UniProt P31645); assay: biochemical; assay type: cell-based, HEK293
Target sequence in this assay (P31645 whole entry): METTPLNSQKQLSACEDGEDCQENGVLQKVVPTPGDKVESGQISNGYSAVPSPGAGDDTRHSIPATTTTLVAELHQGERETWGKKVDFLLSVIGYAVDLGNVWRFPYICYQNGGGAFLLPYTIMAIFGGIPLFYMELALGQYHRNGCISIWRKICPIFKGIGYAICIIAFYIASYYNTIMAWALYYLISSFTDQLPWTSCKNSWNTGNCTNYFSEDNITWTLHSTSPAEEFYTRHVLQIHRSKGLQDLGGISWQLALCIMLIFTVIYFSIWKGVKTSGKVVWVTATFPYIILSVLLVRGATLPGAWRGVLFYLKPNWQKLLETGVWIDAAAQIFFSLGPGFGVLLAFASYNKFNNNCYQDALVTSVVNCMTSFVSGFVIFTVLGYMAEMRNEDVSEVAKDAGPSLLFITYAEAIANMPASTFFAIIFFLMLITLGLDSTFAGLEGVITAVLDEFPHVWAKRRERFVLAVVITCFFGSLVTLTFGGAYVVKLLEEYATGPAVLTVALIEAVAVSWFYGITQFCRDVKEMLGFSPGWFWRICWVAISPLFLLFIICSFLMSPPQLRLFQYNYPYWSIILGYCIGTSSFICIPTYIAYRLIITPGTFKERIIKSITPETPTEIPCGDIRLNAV
Description: Displacement of [3H]citalopram from human SERT expressed in HEK293 cells measured after 30 mins

[7] = biological target: T4, Sodium-dependent dopamine transporter (Homo sapiens, UniProt Q01959); assay: Displacement of [3H]-WIN35428 from human DAT expressed in HEK293 cells at 10 uM measured after 30 mins; assay type: cell-based
[8] = biological target: T4, Sodium-dependent dopamine transporter
Description: Displacement of [3H]-WIN35428 from human DAT expressed in HEK293 cells measured after 30 mins

[9] = biological target: T3, Sodium-dependent serotonin transporter; details: HEK293, at 10 µM
Target sequence in this assay (P31645 whole entry, looked up): as the sequence (P31645 whole entry) above
Description: Displacement of [3H]citalopram from human SERT expressed in HEK293 cells at 10 uM measured after 30 mins

[10] = biological target: Sigma non-opioid intracellular receptor 1 (Cavia porcellus) (UniProt Q60492); assay: Binding affinity to sigma1 receptor form guinea pig brain membrane in presence of phenytoin […]
[11] = Permeability of the compound after 18 hrs by PAMPA assay; assay type: ADME; details: read-out: permeability
Mus musculus [12] = assay: Antinociceptive activity in Kun Ming mouse assessed as reduction in paw licking and flinching time at 80 mg/kg, ip administered 15 mins prior to formalin challenge measured up to 45 mins post formalin dosing relative to vehicle-treated control; assay type: functional, organism-based
[13] = Toxicity in Kun Ming mouse assessed as decrease in rotarod latency at 40 mg/kg, ip measured after 60 to 120 mins by rotarod test relative to vehicle-treated control; assay type: organism-based; details: in vivo
Mus musculus [14] = assay: Antinociceptive activity in Kun Ming mouse assessed as reduction in paw licking and flinching time at 40 mg/kg, ip administered 15 mins prior to formalin challenge measured after 0 to 10 mins post formalin dosing relative to vehicle-treated control; assay type: functional, organism-based
Mus musculus [15] = assay: Antinociceptive activity in Kun Ming mouse assessed as reduction in paw licking and flinching time at 40 mg/kg, ip administered 15 mins prior to formalin challenge measured after 11 to 45 mins post formalin dosing relative to vehicle-treated control; assay type: functional, organism-based
[16] = Toxicity in Kun Ming mouse assessed as decrease in rotarod latency at 40 and 80 mg/kg, ip measured after 60 to 120 mins by rotarod test relative to vehicle-treated control; assay type: organism-based; details: in vivo
[17] = Elimination rate constant in Kun Ming mouse plasma at 40 mg/kg, po by LC-MS/MS analysis; assay type: ADME, organism-based
[18] = Half life in Kun Ming mouse plasma at 40 mg/kg, po by LC-MS/MS analysis; assay type: ADME, organism-based
[19] = Tmax in Kun Ming mouse plasma at 40 mg/kg, po by LC-MS/MS analysis; assay type: ADME, organism-based
[20] = Cmax in Kun Ming mouse plasma at 40 mg/kg, po by LC-MS/MS analysis; assay type: ADME, organism-based; parameters: dose 40 mg/kg, route oral
[21] = AUC (0 to 8 hrs) in Kun Ming mouse plasma at 40 mg/kg, po by LC-MS/MS analysis; assay type: ADME, organism-based; parameters: time < 8 hr, dose 40 mg/kg, route oral
[22] = AUC (0 to infinity) in Kun Ming mouse plasma at 40 mg/kg, po by LC-MS/MS analysis; assay type: ADME, organism-based; parameters: dose 40 mg/kg, route oral, time infinity
[23] = AUMC (0 to 8 hrs) in Kun Ming mouse plasma at 40 mg/kg, po by LC-MS/MS analysis; assay type: ADME, organism-based; details: in vivo
[24] = AUMC (0 to infinity) in Kun Ming mouse plasma at 40 mg/kg, po by LC-MS/MS analysis; assay type: ADME, organism-based; details: in vivo
[25] = Mean residence time in Kun Ming mouse plasma at 40 mg/kg, po by LC-MS/MS analysis; assay type: ADME, organism-based
[26] = Elimination rate constant in Kun Ming mouse brain at 40 mg/kg, po by LC-MS/MS analysis; assay type: ADME, organism-based
[27] = Half life in Kun Ming mouse brain at 40 mg/kg, po by LC-MS/MS analysis; assay type: ADME, organism-based
[28] = Tmax in Kun Ming mouse brain at 40 mg/kg, po by LC-MS/MS analysis; assay type: ADME, organism-based
[29] = Cmax in Kun Ming mouse brain at 40 mg/kg, po by LC-MS/MS analysis; assay type: ADME, organism-based; parameters: dose 40 mg/kg, route oral
[30] = AUC (0 to 8 hrs) in Kun Ming mouse brain at 40 mg/kg, po by LC-MS/MS analysis; assay type: ADME, organism-based; parameters: time < 8 hr, dose 40 mg/kg, route oral; details: in vivo
[31] = AUC (0 to infinity) in Kun Ming mouse brain at 40 mg/kg, po by LC-MS/MS analysis; assay type: ADME, organism-based; parameters: dose 40 mg/kg, route oral, time infinity; details: in vivo
[32] = AUMC (0 to 8 hrs) in Kun Ming mouse brain at 40 mg/kg, po by LC-MS/MS analysis; assay type: ADME, organism-based; details: in vivo
[33] = Ratio of Cmax in brain to plasma of Kun Ming mouse at 40 mg/kg, po; assay type: ADME, organism-based
[34] = AUMC (0 to infinity) in Kun Ming mouse brain at 40 mg/kg, po by LC-MS/MS analysis; assay type: ADME, organism-based; details: in vivo
[35] = Mean residence time in Kun Ming mouse brain at 40 mg/kg, po by LC-MS/MS analysis; assay type: ADME, organism-based
[36] = Ratio of AUC (0 to 8 hrs) in brain to plasma of Kun Ming mouse at 40 mg/kg, po; assay type: ADME, organism-based; details: read-out: Ratio AUC
[37] = Ratio of AUC (0 to infinity) in brain to plasma of Kun Ming mouse at 40 mg/kg, po; assay type: ADME, organism-based; details: read-out: Ratio AUC

Chain of Sodium-dependent noradrenaline transporter (P23975 whole entry): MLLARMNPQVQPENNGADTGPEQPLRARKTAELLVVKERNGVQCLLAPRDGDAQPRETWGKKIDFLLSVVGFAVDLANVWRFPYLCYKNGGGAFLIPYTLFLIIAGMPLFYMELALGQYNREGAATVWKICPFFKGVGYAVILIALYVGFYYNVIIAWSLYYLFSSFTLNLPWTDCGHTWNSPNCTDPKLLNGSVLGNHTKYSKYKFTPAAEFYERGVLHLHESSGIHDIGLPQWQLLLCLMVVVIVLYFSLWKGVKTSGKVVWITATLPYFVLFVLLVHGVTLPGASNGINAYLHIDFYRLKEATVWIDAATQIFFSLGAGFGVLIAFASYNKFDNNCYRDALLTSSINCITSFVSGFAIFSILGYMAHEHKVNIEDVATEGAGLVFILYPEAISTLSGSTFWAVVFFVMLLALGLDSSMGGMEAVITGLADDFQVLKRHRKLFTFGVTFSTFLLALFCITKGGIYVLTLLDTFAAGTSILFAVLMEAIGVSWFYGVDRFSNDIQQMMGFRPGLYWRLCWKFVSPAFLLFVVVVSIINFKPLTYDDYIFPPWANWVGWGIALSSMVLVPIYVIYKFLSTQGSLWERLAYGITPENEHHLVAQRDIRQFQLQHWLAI
Chain of Sigma non-opioid intracellular receptor 1 (Cavia porcellus) (Q60492 whole entry): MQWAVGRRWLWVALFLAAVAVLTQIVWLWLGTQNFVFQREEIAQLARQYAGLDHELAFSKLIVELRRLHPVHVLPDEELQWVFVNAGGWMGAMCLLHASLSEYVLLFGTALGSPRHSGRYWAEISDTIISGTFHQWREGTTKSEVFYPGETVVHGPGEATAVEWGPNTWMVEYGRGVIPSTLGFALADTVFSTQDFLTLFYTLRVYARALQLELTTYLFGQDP
T4 sequence (Q01959 whole entry): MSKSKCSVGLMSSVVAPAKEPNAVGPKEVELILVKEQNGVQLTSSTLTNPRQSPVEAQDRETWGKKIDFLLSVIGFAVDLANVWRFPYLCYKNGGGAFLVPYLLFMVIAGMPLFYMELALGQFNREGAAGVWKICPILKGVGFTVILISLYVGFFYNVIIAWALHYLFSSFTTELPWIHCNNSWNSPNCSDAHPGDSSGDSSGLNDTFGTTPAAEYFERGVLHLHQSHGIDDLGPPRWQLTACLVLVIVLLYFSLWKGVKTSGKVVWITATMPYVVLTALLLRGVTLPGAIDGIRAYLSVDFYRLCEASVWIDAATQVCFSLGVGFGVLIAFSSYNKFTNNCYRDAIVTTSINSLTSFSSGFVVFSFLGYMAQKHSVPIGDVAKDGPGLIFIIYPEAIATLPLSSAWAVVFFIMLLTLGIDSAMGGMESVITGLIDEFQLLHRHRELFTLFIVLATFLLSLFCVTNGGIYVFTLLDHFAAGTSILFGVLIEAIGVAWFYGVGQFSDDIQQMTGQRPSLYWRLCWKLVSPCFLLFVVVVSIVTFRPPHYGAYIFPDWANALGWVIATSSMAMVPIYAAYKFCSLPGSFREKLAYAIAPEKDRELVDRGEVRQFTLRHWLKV
Chain of Sigma non-opioid intracellular receptor 1 (Rattus norvegicus) (Q9R0C9 whole entry): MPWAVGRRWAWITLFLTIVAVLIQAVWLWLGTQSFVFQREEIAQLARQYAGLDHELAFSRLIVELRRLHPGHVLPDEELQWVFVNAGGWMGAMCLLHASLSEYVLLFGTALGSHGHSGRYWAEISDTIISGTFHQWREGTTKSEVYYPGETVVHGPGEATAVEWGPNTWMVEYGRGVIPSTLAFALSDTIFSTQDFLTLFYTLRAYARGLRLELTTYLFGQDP
Chain of Sigma non-opioid intracellular receptor 1 (Q9R0C9 whole entry): as above

## c1ccc(OCc2cc(N3CCCCC3)no2)cc1
[1]
  Ki: > 10000 nM
[2]
  Ki: > 10000 nM
[3]
  inhibition: < 50%
[4]
  inhibition: < 50%

## O=C(Oc1ccccc1)c1cc(OC[C@@H]2CCCN2)no1
[1]
  Ki: > 10000 nM
[2]
  Ki: > 10000 nM
[3]
  inhibition: < 50%
[4]
  inhibition: < 50%

## Clc1ccccc1OCc1cc(OC[C@@H]2CCCN2)no1
[1]
  Ki: 2.7 nM
[2]
  Ki: 165 nM
[3]
  inhibition: > 50%
[5]
  Ki: 2110 nM
[6]
  Ki: 2.95 µM
[7]
  inhibition: < 50%
[8]
  Ki: > 10 µM
[9]
  inhibition: > 50%

## CN(CCOc1cc(COc2ccccc2)on1)C1CCCCC1
[1]
  Ki: 0.3 nM
[2]
  Ki: 18.7 nM
[3]
  inhibition: > 50%
[5]
  Ki: > 10000 nM
[6]
  Ki: > 10 µM
[7]
  inhibition: < 50%
[8]
  Ki: > 10 µM
[9]
  inhibition: < 50%

## Cl.Fc1cccc(OCc2cc(OC[C@@H]3CCCN3)no2)c1
[1]
  Ki: 1.4 nM
[2]
  Ki: 277 nM
[10]
  Activity: inactive
[11]
  Papp at 18 h: 2 to 4 ×10⁻⁶ cm/s

## Fc1ccccc1OCc1cc(OC[C@@H]2CCCN2)no1
[1]
  Ki: 6 to 6.1 nM
[2]
  Ki: 396 nM
[3]
  inhibition: > 50%
[5]
  Ki: 1080 nM
[6]
  Ki: > 10 µM
[7]
  inhibition: < 50%
[8]
  Ki: > 10 µM
[9]
  inhibition: < 50%

## Cc1cc(OCCN2CCOCC2)nn1-c1ccc2ccccc2c1
[10]
  Activity: inactive
Mus musculus [12]
  Activity: Active
[11]
  Papp at 18 h: 2 to 4 ×10⁻⁶ cm/s

## Clc1cccc(OCc2cc(OC[C@@H]3CCCN3)no2)c1.O=C(O)C(F)(F)F
[1]
  Ki: 2.6 nM
[2]
  Ki: > 10000 nM
[4]
  inhibition: < 50%
[10]
  Activity: inactive
[11]
  Papp at 18 h: 2 to 4 ×10⁻⁶ cm/s

## Fc1ccc(C(OCCN2CCN(CCCc3ccccc3)CC2)c2ccc(F)cc2)cc1
[7]
  inhibition: > 50%

## CN1CCC[C@H]1COc1cc(COc2ccccc2)on1.Cl
[1]
  Ki: 3.4 nM
[2]
  Ki: 665 nM
[11]
  Papp at 18 h: 2 to 4 ×10⁻⁶ cm/s

## O=C(Nc1ccccc1)OCc1cc(OC[C@@H]2CCCN2)no1
[1]
  Ki: 299 nM
[2]
  Ki: > 10000 nM
[4]
  inhibition: < 50%

## NCCOc1cc(COc2ccccc2)on1
[1]
  Ki: 63.9 nM
[2]
  Ki: > 10000 nM
[4]
  inhibition: < 50%

## CC(C)C[C@H](CN)CC(=O)O [PREGABALIN]
[13]
  Activity: Toxic

## CN(CCOc1cc(COc2ccccc2)on1)C1CCC1
[1]
  Ki: 1.8 nM
[2]
  Ki: 307 nM
[10]
  Activity: inactive

## c1ccc(OCc2cc(OC[C@@H]3CCCN3)no2)cc1
[10]
  Activity: inactive
[11]
  Papp at 18 h: 2 to 4 ×10⁻⁶ cm/s

## c1ccc(OCc2cc(N3CCOCC3)no2)cc1
[1]
  Ki: > 10000 nM
[2]
  Ki: > 10000 nM
[3]
  inhibition: < 50%
[4]
  inhibition: < 50%

## CN(C)CCOc1cc(COc2ccccc2)on1
[1]
  Ki: > 10000 nM
[2]
  Ki: > 10000 nM
[3]
  inhibition: < 50%
[4]
  inhibition: < 50%

## O=C(Nc1ccccc1)c1cc(OC[C@@H]2CCCN2)no1
[1]
  Ki: 130 nM
[2]
  Ki: > 10000 nM
[4]
  inhibition: < 50%

## CN(CCOc1cc(COc2ccccc2)on1)CC1CC1.Cl
[1]
  Ki: 0.8 nM
[2]
  Ki: 225 nM
[3]
  inhibition: > 50%
[5]
  Ki: > 10000 nM
[6]
  Ki: > 10 µM
[7]
  inhibition: < 50%
[10]
  Activity: inactive
Mus musculus [12]
  Activity: Active
Mus musculus [14]
  Activity: inactive
Mus musculus [15]
  Activity: Active
[16]
  Activity: Non-Toxic
[11]
  Papp at 18 h: 2 to 4 ×10⁻⁶ cm/s
[17]
  k el: 7.31e-05 s⁻¹
[18]
  half-life: 158 min
[19]
  Tmax: 10 min
[20]
  Cmax: 193 ng/mL
[21]
  AUC(0-t) at 8 h: 108 ng·h/mL
[22]
  AUC(0-inf): 113 ng·h/mL
[23]
  AUMC: 91.5 hr.hr.ng/ml
[24]
  AUMC: 157 hr.hr.ng/ml
[25]
  MRT: 1.39 h
[26]
  k el: 7.67e-05 s⁻¹
[27]
  half-life: 151 min
[28]
  Tmax: 10 min
[29]
  Cmax: 395 ng/g
[30]
  AUC: 373 ng·h/g
[31]
  AUC: 403 ng·h/g
[32]
  AUMC: 578 hr.hr.ng/g
[33]
  Kp: 2
[34]
  AUMC: 935 hr.hr.ng/g
[35]
  MRT: 2.32 h
[36]
  Kp: 3.6
[37]
  Kp: 3.6
[8]
  Ki: > 10 µM
[9]
  inhibition: < 50%

## Cl.c1ccc(OCc2cc(N3CCNCC3)no2)cc1
[1]
  Ki: 5.3 nM
[2]
  Ki: 221 nM
[3]
  inhibition: > 50%
[5]
  Ki: 163 nM
[6]
  Ki: > 10 µM
[7]
  inhibition: > 50%
[11]
  Papp at 18 h: 7.36 ×10⁻⁶ cm/s
[8]
  Ki: 0.497 µM
[9]
  inhibition: < 50%
